Laboratory results: patent publication US7186530B1, “Protein associated with cell stress response” (Chiron Corporation, priority 2000, dated 2007)

Legend:
p46 hyperphosphorylation [1] = experiment: p46 (Nogo B) hyperphosphorylation after UVC irradiation in presence of inhibitors, Western blot with SC-54; assay type: cell-based, human
Method: FIG. 5. […] Then cells were irradiated with 20 J/m^2 of UVC and lysed 30 minutes later. Whole cell lysates were separated on SDS-PAGE. SC-54 was used for Western Blotting.
(§1) Cell culture and treatment. Normal human fibroblast IMR90 was purchased from American Type Culture Collection (Manassas, Va.). Cells were routinely cultured in Dulbecco's Modified Eagle's Medium (DMEM) containing 10% fetal bovine serum, 2 mM L-glutamine, 4.5 g/liter glucose, 100 units penicillin and 100 μg streptomycin at 37° C. under an atmosphere of 5% CO2. For UV irradiation, cells were washed twice with phosphate-buffered saline (PBS) and then irradiated with appropriate doses of UVC (254 nm). Fresh complete medium was added back and cells were lysed at appropriate times. For treatment with BPDE, cells were washed with PBS twice and fresh DMEM was added. BPDE was dissolved in anhydrous dimethyl sulfoxide (DMSO) and appropriate amount of BPDE solution was added to DMEM. Cells were lysed 30 minutes later.
(§2) Western Blotting. Lysates prepared from equal number of cells were mixed with equal volume of 2× sample buffer (50 mM Tris.HCl, pH 6.9, 9% glycerol, 2.3% SDS, 0.1% bromophenol blue and 10% mecaptoethanol) and the proteins were separated on a SDS/polyacrylamide gel. The proteins were then electroblotted onto an Immobilon-P membrane (Millipore, Bedford, Mass.). The blots were blocked for 1 hour at room temperature in Tris-buffered saline (20 mM Tris-HCl, pH 7.6, 137 mM NaCl) containing 0.1% (v/v) Tween 20 and 5% (w/v) non-fat dry milk (blocking solution), and then incubated for 1 hour at room temperature with appropriate antibodies at a concentration of 0.2–1 μg/ml. The blots were washed several times and then incubated with horseradish peroxidase-conjugated goat-anti-mouse IgG (Santa Cruz Biotechnology) that had been diluted 1:3000 with blocking solution. Enhanced chemiluminescence (Amersham, Arlington Heights, Ill.) was used according to the manufacturer's recommendations to detect the signal.
(§3) The data shown in FIG. 4 were obtained as follows. (A) IMR90 cells were treated with 0, 0.5, 1, or 4 μM of BPDE and trypsinized after 30 minutes. Digitonin-solubilized fraction (Cyto) and NP-40-solubilized fraction (Nuc) were separated on SDS-PAGE. SC-54 was used for Western Blotting. In FIG. 4, (B) IMR90 cells were incubated in the presence or absence of suramin (0.15 mM) for 1 hour before being irradiated with 0 or 20 J/m^2 of UVC. After 0, 10, 20 or 30 minutes, whole cell lysates were prepared, separated on SDS-PAGE and transferred to a PVDF membrane. SC-54 or an antibody against human ERK2 was used for Western Blotting. […] In FIG. 4, (C) IMR90 cells were treated with 0.7 M NaCl, 1 mM H2O2, 0.4 M Sorbitol or PBS (control) for 45 minutes before being lysed. Whole cell lysates were separated on SDS-PAGE. SC-54 was used for Western Blotting.
It has been shown that elevated cellular stress level can activate p38 MAPK. The role of activation of p38 MAPK in p46 hyperphosphorylation was investigated.

MEK = conditions: cited from earlier work
p46 hyperphosphorylation [2] = experiment: p46 hyperphosphorylation induced by stress-inducing agents, Western blot; assay type: cell-based, human; conditions: for hyperphosphorylation of p46 (induction): 45 minutes
Method: FIG. 4. […] (A) IMR90 cells were treated with 0, 0.5, 1, or 4 μM of BPDE and trypsinized after 30 minutes. (B) IMR90 cells were incubated in the presence or absence of suramin (0.15 mM) for 1 hour before being irradiated with 0 or 20 J/m^2 of UVC. (C) IMR90 cells were treated with 0.7 M NaCl, 1 mM H2O2, 0.4 M Sorbitol or PBS (control) for 45 minutes before being lysed.
as §1, §2, §3

ERK2 = ERK2 phosphorylation after UVC irradiation, Western blot; assay type: cell-based, human; conditions: preincubation 0.15 mM for 1 hour, 20 J/m^2 UVC, IMR90 cells
Method: as §2
The data shown in FIG. 4 were obtained as follows. (A) IMR90 cells were treated with 0, 0.5, 1, or 4 μM of BPDE and trypsinized after 30 minutes. Digitonin-solubilized fraction (Cyto) and NP-40-solubilized fraction (Nuc) were separated on SDS-PAGE. SC-54 was used for Western Blotting. […]

p38 = conditions: read-out: IC50 (p38-specific inhibitor); cited from earlier work

CCc1nc(-c2ccc(OC)cc2)[nH]c1-c1ccncc1 [SB202474]
p46 hyperphosphorylation (p46 hyperphosphorylation [1]; concentration not given, UVC, IMR90 cells): no effect

COc1cccc(-c2cc(=O)c3ccccc3o2)c1N [PD98059]
p46 hyperphosphorylation (p46 hyperphosphorylation [1]; 20 uM): not affected

C[C@@]1(CO)[C@H](O)CC[C@@]2(C)[C@H]1CC[C@H]1C[C@@H]3C[C@@]12CC[C@]3(O)CO [aphidicolin]
p46 phosphorylation state (p46 hyperphosphorylation [2]; cells arrested by the agent): hyperphosphorylated

OC1c2cc3ccc4cccc5ccc(c2C2OC2C1O)c3c45 (racemic) [BPDE, (±)-r-7,t-8-dihydroxy-t-9,10-epoxy-7,8,9,10-tetrahydrobenzo(a)pyrene]
p46 hyperphosphorylation (induction) (p46 hyperphosphorylation [2]; 0, 0.5, 1, or 4 μM, 30 minutes, IMR90 cells): led to p46 hyperphosphorylation in a dose-dependent manner

Cc1ccc(C(=O)Nc2ccc(S(=O)(=O)O)c3cc(S(=O)(=O)O)cc(S(=O)(=O)O)c23)cc1NC(=O)c1cccc(NC(=O)Nc2cccc(C(=O)Nc3cc(C(=O)Nc4ccc(S(=O)(=O)O)c5cc(S(=O)(=O)O)cc(S(=O)(=O)O)c45)ccc3C)c2)c1 [suramin]
phosphorylation of ERK2 (ERK2): completely blocked
p46 hyperphosphorylation (p46 hyperphosphorylation [1]; preincubation 0.15 mM for 1 hour, 20 J/m^2 UVC, IMR90 cells): no effect

OC[C@@H](O)[C@@H](O)[C@H](O)[C@@H](O)CO [sorbitol]
hyperphosphorylation of p46 (induction) (p46 hyperphosphorylation [2]; 0.4 M, IMR90 cells): rapid hyperphosphorylation

[Cl-].[Na+] [NaCl]
hyperphosphorylation of p46 (induction) (p46 hyperphosphorylation [2]; 0.7 M, IMR90 cells): rapid hyperphosphorylation

Oc1ccc(-c2nc(-c3ccc(F)cc3)c(-c3ccncc3)[nH]2)cc1 [SB202190]
p46 hyperphosphorylation (p46 hyperphosphorylation [1]; 270 nM inhibitor, 30 minutes before 20 J/m^2 UVC, IMR90 cells): almost completely abolished
hyperphosphorylation of Nogo (p46 hyperphosphorylation [1]; indicated concentrations for 30 minutes, then 20 J/m^2 UVC, lysed 30 minutes later, IMR90 (FIG. 5)): abolished

OO [H2O2]
hyperphosphorylation of p46 (induction) (p46 hyperphosphorylation [2]; 1 mM, IMR90 cells): rapid hyperphosphorylation
